Experiments:
[1] = test system: RXR (retinoid X receptor); conditions: cited from earlier work
hepatocytes = conditions: EP 1177789; cited from earlier work
PPARα = molecular target: T1, PPARα (Homo sapiens, UniProt Q07869); conditions: cited from earlier work
T1 sequence (Q07869 1-468): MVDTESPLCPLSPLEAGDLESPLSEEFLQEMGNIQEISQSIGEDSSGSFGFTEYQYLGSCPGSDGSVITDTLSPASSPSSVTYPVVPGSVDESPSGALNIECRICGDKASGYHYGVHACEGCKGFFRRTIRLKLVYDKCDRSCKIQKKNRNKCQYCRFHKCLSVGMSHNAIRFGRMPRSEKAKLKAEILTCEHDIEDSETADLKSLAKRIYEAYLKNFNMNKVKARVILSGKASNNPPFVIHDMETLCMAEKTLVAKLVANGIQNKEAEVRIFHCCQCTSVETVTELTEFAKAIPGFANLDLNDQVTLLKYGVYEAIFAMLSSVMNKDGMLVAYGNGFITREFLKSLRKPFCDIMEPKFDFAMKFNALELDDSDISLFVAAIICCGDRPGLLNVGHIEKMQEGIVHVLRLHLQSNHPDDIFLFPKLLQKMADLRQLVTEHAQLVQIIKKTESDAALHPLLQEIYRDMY

3T3-L1 cells = 3T3-L1 cells (Schluter et al., 2002); cited from earlier work
[2] = test system: mouse teratogenesis models; conditions: mouse teratogenesis models (Arnhold et al., 2002); cited from earlier work
humans = conditions: 10% concentration (Kligman, 1966; Kligman & Epstein, 1975); cited from earlier work
[3] = cited from earlier work
healthy rats [4] = assay: Phytol treatment healthy rats, 400 mg every second day, serum cholesterol and LDL-cholesterol (Example 7); format: in vivo, rat; conditions: 400 mg phytol every second day, after three weeks, vs untreated rats
Description: FIG. 7 is a graph comparing the cholesterol and LDL-Cholesterol lowering effect of Phytol in rats. The rats were treated with oral administration of phytol at 400 mg every second day for three weeks.
(§1) Cholesterol and LDL-Cholesterol lowering effect after oral administration of phytol was validated in serum from healthy rats treated with phytol. Phytol (FIG. 7; black bars) was administrated to rats at 400 mg phytol administered every second day for three weeks. Analysis was made in comparison with control (FIG. 7; white bars) untreated rats.

rabbits = conditions: cited from earlier work
healthy pigs [5] = assay: Phytol treatment healthy pigs, serum triglycerides and cholesterol (Example 2); format: in vivo, pig; conditions: 10 g phytol daily mixed in the food, after 1 wk, vs untreated pigs
Description: FIG. 2 is a graph comparing the triglyceride and cholesterol lowering effect of phytol in pigs. The pigs were treated with oral administration of phytol at 10 g daily.
(§2) Triglyceride and cholesterol lowering effect after oral administration of phytol was validated in serum from healthy pigs treated with phytol. Phytol (FIG. 2.; black bars) was administrated to pigs at 10 g phytol daily mixed in the food. Analysis was made in comparison with control (FIG. 2.; white bars) untreated pigs.

[6] = one Refsum's disease patient, 72 mg tritium labelled phytol orally after overnight fasting (Kahlke & Wagener, 1966); cited from earlier work
healthy pigs [7] = assay: Phytol treatment healthy pigs, increasing dose, serum triglycerides (Example 3); format: in vivo, pig; conditions: vs corn oil control
Description: FIG. 3 is a graph showing the effect of increased dose of phytol in pigs. The pigs were treated with oral administration of 1.25; 2.5; 5 and 10 g phytol daily for two weeks, respectively.
Triglyceride lowering effect after oral administration of phytol was validated in serum from healthy pigs treated with phytol. Phytol (FIG. 3.; black circles) was administrated to pigs at 1.25, 2.5, 5 and 10 g phytol daily. Analysis was made in comparison with control (FIG. 3.; open circles) pigs given corn oil as control.

healthy rats [8] = assay: Phytol treatment healthy rats, serum cholesterol and LDL-cholesterol, thirty days (Example 5); format: in vivo, rat; conditions: 1 weight percentage phytol in the food
Description: FIG. 5 is a graph comparing the cholesterol and LDL-Cholesterol lowering effect of phytol in rats. The rats were treated with oral administration of phytol at 1% weight evenly distributed in powdered chow.
as §1, with “5;” for “7;”, “1 weight percentage” for “400 mg”, “mixed in the food” for “administered every second day”, “thirty days.” for “three weeks.”

adult mice = conditions: cited from earlier work
rats [9] = conditions: rats fed 0.5% phytol in the diet for 15 months (Steinberg et al., 1966); cited from earlier work
[10] = cited from earlier work; remark: listed apart in the source
obese (ob/ob) mice = assay: Phytol treatment obese (ob/ob) mice, serum cholesterol (Example 4); format: in vivo, mouse; conditions: 0.75 weight percentage phytol mixed in the food, during 5 weeks, vs untreated mice, p<0.001
Description: FIG. 4 is a graph comparing the cholesterol lowering effect of phytol in obese ob/ob mice. The mice were treated with oral administration of phytol 0.75% weight evenly distributed in powdered chow.
Cholesterol lowering effect after oral administration of phytol was validated in serum from obese (ob/ob) mice treated with phytol. Phytol (FIG. 4; black circles) was administrated to the mice at 0.75 weight percentage phytol mixed in the food. Analysis was made in comparison with control (FIG. 4; open circles) untreated mice.

rats [11] = conditions: cited from earlier work
healthy mice = assay: Phytol treatment healthy mice, serum cholesterol and LDL-cholesterol (Example 6); format: in vivo, mouse; conditions: 1 weight percentage phytol in the food, after thirty days, vs untreated mice
Description: FIG. 6 is a graph comparing the cholesterol and LDL-Cholesterol lowering effect of phytol in mice. The mice were treated with oral administration of phytol at 1% weight evenly distributed in powdered chow.
Cholesterol and LDL-Cholesterol lowering effect after oral administration of phytol was validated in serum from healthy mice treated with phytol. Phytol (FIG. 6; black bars) was administrated to mice at 1 weight percentage phytol mixed in the food for thirty days. Analysis was made in comparison with control (FIG. 6; white bars) untreated mice.

healthy rats [12] = assay: Phytol treatment healthy rats, serum triglycerides and cholesterol (Example 1); format: in vivo, rat; conditions: 1 weight percentage phytol mixed in the food, after 4 days, vs untreated rats
Description: FIG. 1 is a graph comparing the triglyceride and cholesterol lowering effect of phytol in rats. The rats were treated with oral administration of phytol at 125 mg daily.
as §2, with “rats” for “pigs”, “1;” for “2.;”, “1 weight percentage” for “10 g”, “phytol” for “phytol daily”, “rats.” for “pigs.”

[13] = phytol given as chlorophyll; cited from earlier work
[14] = after ten days, vs untreated rats, p<0.0001
[15] = after three weeks of phytol feeding

CC(C)CCCC(C)CCCC(C)CCCC(C)CC(=O)O (stereo not drawn) [phytanic acid]
RXR (retinoid X receptor) activator ([1]; Kitareewan et al., 1996): activator | activation of RXR in vitro (postulated) ([1]; in vitro): activate | transcription of the genes for glucose transporters and glucokinase (hepatocytes): increase and stimulate the transcription | uptake of glucose in hepatocytes (hepatocytes): increased uptake of glucose | activation of PPARα in vitro (postulated) (PPARα): activate | AP2 mRNA (3T3-L1 cells): activates AP2 mRNA | vitamin A (retinol) induced teratogenic effects [2]: able to prevent

C/C(=C\CO)CCCC(C)CCCC(C)CCCC(C)C (stereo not drawn) [phytol, 3,7,11,15-Tetramethyl-hexadec-2-en-1-ol]
irritation (humans): no irritation | capacity to absorb into the intestinal lymphatic ([3]; rat, oral administration (Baxter & Steinberg, 1967)): ≤ 0.2 g phytol/kg bodyweight | time of transportation into the intestinal lymphatic after administration ([3]; rat, oral administration): ≤ 20 h | absorption when mixed with bile salts prior to administration ([3]; rat, oral, phytol mixed with bile salts): absorption increases | orally administered phytol absorbed ([3]; rat, oral): More than 50% | share of absorbed phytol absorbed via the intestinal lymphatics ([3]; rat, oral): more than 70% | absorption and degradation ([3]; rats fed 5% phytol (Mize et al., 1966)): capacity to rapidly absorb and degrade phytol | absorbed, of administered dose ([3]; rats, oral): 30-66 % of administered dose | serum LDL-cholesterol (healthy rats [4]; p<0.001): significantly reduced | serum cholesterol (healthy rats [4]; p<0.05): significantly reduced | acute dermal LD50 (rabbits): exceed 5 g/kg | serum levels of triglycerides (healthy pigs [5]; p<0.01): significantly reduced | serum levels of cholesterol (healthy pigs [5]; p<0.05): significantly reduced | principal carriers of phytol in plasma [6]: Plasma cholesterol esters and triglycerides | serum levels of triglycerides (healthy pigs [7]; 2.5 g phytol per day oral, p<0.05): significantly reduced | serum levels of triglycerides (healthy pigs [7]; 5 g phytol per day oral, p<0.01): significantly reduced | serum levels of triglycerides (healthy pigs [7]; 10 g phytol per day oral, p<0.001): significantly reduced | serum LDL-cholesterol (healthy rats [8]; [14]): significantly reduced | serum cholesterol (healthy rats [8]; [14]): significantly reduced | serum LDL-cholesterol (healthy rats [8]; after thirty days): even more reduced | serum cholesterol levels (adult mice; [15]): remained unaffected | serum triglyceride levels (adult mice; [15]): decreased | hepatic peroxisomes (adult mice; enhanced supply of phytol in the diet (Van den Branden et al., 1986)): proliferation of hepatic peroxisomes | growth inhibition or toxicity (rats [9]): No evidence of growth inhibition or toxicity | serum and liver values of accumulated phytol after phytol is subtracted from the food ([10]; after withdrawal of dietary phytol): drops rapidly | distribution to the livers ([10]; at the 1% level in the food): no phytol was distributed to the livers | accumulation in tissues ([10]; dietary phytol at doses 1-5% in the food, rat, mouse, rabbit and chinchillas (Steinberg et al., 1966)): accumulation in both liver and serum | serum levels of cholesterol (obese (ob/ob) mice): significantly reduced | acute oral LD50 (rats [11]): exceed 5 g/kg | serum LDL-cholesterol (healthy mice; p<0.01): significantly reduced | serum cholesterol (healthy mice; p=0.05): significantly reduced | vitamin A (retinol) induced teratogenic effects [2]: able to prevent | serum levels of cholesterol (healthy rats [12]; p<0.001): significantly reduced | serum levels of triglycerides (healthy rats [12]; p<0.05): significantly reduced

chlorophyll
absorption of phytol compared to when given as pure phytol [13]: much lower

From patent US20110015278A1, “PHYTOL AS A CHOLESTEROL LOWERING AGENT” (priority 2008, published 2011)
